The target of the experiment is T1, Human PD-L1/PD-1 (Homo sapiens, UniProt Q9NZQ7).
T1 construct: made in house; host or cells: HEK293T
The experiment is described as follows: HTRF PD-1-Ig/PD-L1-His binding assay (human PD-L1). From the text:
The ability of the macrocyclic peptides of the present disclosure to bind to PD-L1 was investigated using a PD-1/PD-L1 Homogenous Time-Resolved Fluorescence (HTRF) binding assay.
Homogenous Time-Resolved Fluorescence (HTRF) Assays of Binding of Soluble PD-1 to Soluble PD-L1. Soluble PD-1 and soluble PD-L1 refers to proteins with carboxyl-end truncations that remove the transmembrane-spanning regions and are fused to heterologous sequences, specifically the Fc portion of the human immunoglobuling G sequence (Ig) or the hexahistidine epitope tag (His). All binding studies were performed in an HTRF assay buffer consisting of dPBS supplemented with 0.1% (w/v) bovine serum albumin and 0.05% (v/v) Tween-20. […] PD-L1 fusion proteins from either human, cynomologous macaques, or mouse were used. HTRF detection was achieved using europium crypate-labeled anti-Ig monoclonal antibody (1 nM final) and allophycocyanin (APC) labeled anti-His monoclonal antibody (20 nM final). Antibodies were diluted in HTRF detection buffer and 5 μl was dispensed on top of binding reaction.

Where [1] appears, read: Table 8, Compound No. 1 variant macrocyclic peptides, read-out: HTRF Human PD-L1/PD-1 Binding Assay IC50.

Like-named read-outs stand apart in the source and are kept apart here. Starred links: 1 amine or outer side, 2 acyl side, 3 side chain; linkers in the order of their positions; H or OH if unused. Positions of bridges follow the written chain, without caps; N, C: chain ends. Non-standard residues stand in square brackets, D forms with d. Residues, ends and D or L forms follow the SMILES beside them. ξ: configuration not given here. PEG12 = NCCOCCOCCOCCOCCOCCOCCOCCOCCOCCOCCOCCOCCC(=O)O; ξPro(4R-NH2) = O=C(C1C[C@@H](N[*:3])CN1[*:1])[*:2]; Phe(4-Br) = N[C@@H](Cc1ccc(Br)cc1)C(=O)O; Phe(4-Me) = Cc1ccc(C[C@H](N)C(=O)O)cc1; Bta = N[C@@H](Cc1csc2ccccc12)C(=O)O; Hyp = O=C(O)[C@@H]1C[C@@H](O)CN1; NMeNle = CCCC[C@H](NC)C(=O)O; NMeA = CN[C@@H](C)C(=O)O; Nle = CCCC[C@H](N)C(=O)O; Orn = NCCC[C@H](N)C(=O)O; ξPip = O=C(O)C1CCCCN1; ξAze = O=C(O)C1CCN1; ξP = O=C(O)C1CCCN1; Sar = CNCC(=O)O

T1 sequence (Q9NZQ7 with tags, fused parts or gaps): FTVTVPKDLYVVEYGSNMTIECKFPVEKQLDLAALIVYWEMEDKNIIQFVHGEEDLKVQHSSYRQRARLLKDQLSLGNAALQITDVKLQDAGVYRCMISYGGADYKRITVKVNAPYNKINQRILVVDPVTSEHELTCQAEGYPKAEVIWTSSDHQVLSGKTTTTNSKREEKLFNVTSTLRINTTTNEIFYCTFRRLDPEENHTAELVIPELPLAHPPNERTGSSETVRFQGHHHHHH

Regarding `CCCC[C@H]1C(=O)NCC(=O)N[C@@H](CC(=O)O)C(=O)N[C@@H](C(C)C)C(=O)N(C)[C@@H](Cc2ccccc2)C(=O)N[C@@H](Cc2ccc(O)cc2)C(=O)N(C)CC(=O)N[C@@H](Cc2c[nH]c3ccccc23)C(=O)N[C@@H](Cc2ccc(O)cc2)C(=O)N[C@@H](CC(C)C)C(=O)N[C@H](C(=O)NCC(N)=O)CSCC(=O)N[C@@H](Cc2ccccc2)C(=O)N(C)[C@@H](Cc2ccccc2)C(=O)N1C` [Compound No. 78] (HELM PEPTIDE1{[O=C(C[*:3])[*:2]].F.[meF].[CCCC[C@@H](C(=O)[*:2])N(C)[*:1]].G.D.V.[meF].Y.[Sar].W.Y.L.C.G.[am]}$PEPTIDE1,PEPTIDE1,1:R3-14:R3$$$V2.0), the IC50 (Table 9, Compound No. 71 variant macrocyclic peptides, read-out: HTRF Human PD-L1/PD-1 Binding Assay IC50) is 14 nM. As to `CCCC[C@H]1C(=O)N[C@@H](CCCNC(=N)N)C(=O)N[C@H](C(=O)NCC(N)=O)CSCC(=O)N[C@@H](Cc2ccccc2)C(=O)N(C)[C@@H](C)C(=O)N[C@@H](CC(N)=O)C(=O)N2CCC[C@H]2C(=O)N[C@@H](Cc2cnc[nH]2)C(=O)N[C@@H](CC(C)C)C(=O)N(C)CC(=O)N[C@@H](Cc2c[nH]c3ccccc23)C(=O)N[C@@H](CO)C(=O)N[C@@H](Cc2c[nH]c3ccccc23)C(=O)N(C)[C@@H](Cc2ccccc2)C(=O)N1C` [Compound No. 67] (HELM PEPTIDE1{[O=C(C[*:3])[*:2]].F.[meA].N.P.H.L.[Sar].W.S.W.[meF].[CCCC[C@@H](C(=O)[*:2])N(C)[*:1]].R.C.G.[am]}$PEPTIDE1,PEPTIDE1,1:R3-15:R3$$$V2.0), the IC50 under setting [1] stood at 108 nM. Turning to `CCCC[C@H]1C(=O)N(C)[C@@H](CCCC)C(=O)N[C@@H](CCCN)C(=O)N[C@H](C(=O)NCC(N)=O)CSCC(=O)N[C@@H](Cc2ccc(O)cc2)C(=O)N2CCC[C@H]2C(=O)N[C@@H](CC(N)=O)C(=O)N2CCC[C@H]2C(=O)N[C@@H](Cc2cnc[nH]2)C(=O)N[C@@H](CC(C)C)C(=O)N2C[C@H](O)C[C@H]2C(=O)N[C@@H](Cc2c[nH]c3ccccc23)C(=O)N[C@@H](CO)C(=O)N[C@@H](Cc2c[nH]c3ccccc23)C(=O)N1C` [Example 1173] ({CH2CO}-YPNPHL[Hyp]WSW[NMeNle][NMeNle][Orn]CG-NH2; thioether N-14), the IC50 (read-out: HTRF IC50 value) turned out to be 2.71 nM.

`CCCC[C@H]1C(=O)N(C)[C@@H](CCCC)C(=O)N[C@@H](CCCNC(=N)N)C(=O)N[C@H](C(=O)NCC(N)=O)CSCC(=O)N[C@@H](Cc2ccccc2)C(=O)N(C)[C@@H](C)C(=O)N[C@@H](CC(N)=O)C(=O)N2CCCCC2C(=O)N[C@@H](Cc2cnc[nH]2)C(=O)N[C@@H](CC(C)C)C(=O)N(C)CC(=O)N[C@@H](Cc2c[nH]c3ccccc23)C(=O)N[C@@H](CO)C(=O)N[C@@H](Cc2c[nH]c3ccccc23)C(=O)N1C` (some centres unmarked) [Compound No. 44] ({CH2CO}-F[NMeA]N[ξPip]HL[Sar]WSW[NMeNle][NMeNle]RCG-NH2; thioether N-14): the IC50 under setting [1] is 34 nM. As to `CCCC[C@H]1C(=O)N(C)[C@@H](CCCC)C(=O)N[C@@H](CCCNC(=N)N)C(=O)N[C@H](C(=O)NCC(=O)NCCOCCOCCOCCOCCOCCOCCOCCOCCOCCOCCOCCOCCC(N)=O)CSCC(=O)N[C@@H](Cc2ccccc2)C(=O)N(C)[C@@H](C)C(=O)N[C@@H](CC(N)=O)C(=O)N2CCC[C@H]2C(=O)N[C@@H](Cc2cnc[nH]2)C(=O)N[C@@H](CC(C)C)C(=O)N(C)CC(=O)N[C@@H](Cc2c[nH]c3ccccc23)C(=O)N[C@@H](CO)C(=O)N[C@@H](Cc2c[nH]c3ccccc23)C(=O)N1C` [Compound No. 116] ({CH2CO}-F[NMeA]NPHL[Sar]WSW[NMeNle][NMeNle]RCG[PEG12]-NH2; thioether N-14), the IC50 (Table 10, Compound No. 116 variant macrocyclic peptides, read-out: HTRF Human PD-L1/PD-1 Binding Assay IC50) worked out at 21 nM. In the case of `CCCC[C@H]1C(=O)N(C)[C@@H](CCCC)C(=O)N[C@@H](CCCNC(=N)N)C(=O)N[C@H](C(=O)NCC(N)=O)CSCC(=O)N[C@@H](Cc2ccccc2)C(=O)N(C)[C@@H](C)C(=O)N[C@@H](CC(N)=O)C(=O)N2C[C@H](N)CC2C(=O)N[C@@H](Cc2cnc[nH]2)C(=O)N[C@@H](CC(C)C)C(=O)N(C)CC(=O)N[C@@H](Cc2c[nH]c3ccccc23)C(=O)N[C@@H](CO)C(=O)N[C@@H](Cc2c[nH]c3ccccc23)C(=O)N1C` (stereo partly drawn) [Compound No. 48] ({CH2CO}-F[NMeA]N[ξPro(4R-NH2)]HL[Sar]WSW[NMeNle][NMeNle]RCG-NH2; thioether N-14), the IC50 under setting [1] is 40 nM.

On to `CCCC[C@@H]1NC(=O)[C@H](CCCC)N(C)C(=O)[C@H](Cc2c[nH]c3ccccc23)NC(=O)[C@H](CO)NC(=O)[C@H](Cc2c[nH]c3ccccc23)NC(=O)CN(C)C(=O)[C@H](CC(C)C)NC(=O)[C@H](Cc2cnc[nH]2)NC(=O)C2CCCN2C(=O)[C@H](CC(N)=O)NC(=O)[C@H](C)N(C)C(=O)[C@H](Cc2ccccc2)NC(=O)CSC[C@@H](C(=O)NCC(N)=O)NC(=O)[C@H](CCCNC(=N)N)NC1=O` (some centres unmarked) [Compound No. 20] ({CH2CO}-F[NMeA]N[ξP]HL[Sar]WSW[NMeNle][Nle]RCG-NH2; thioether N-14), for which the IC50 under setting [1] was 8460 nM.

Regarding `CCCC[C@H]1C(=O)N(C)[C@@H](CCCC)C(=O)N[C@@H](CCCNC(=N)N)C(=O)N[C@H](C(=O)NCC(N)=O)CSCC(=O)N[C@@H](Cc2ccc(Br)cc2)C(=O)N(C)[C@@H](C)C(=O)N[C@@H](CC(N)=O)C(=O)N2CCC[C@H]2C(=O)N[C@@H](Cc2cnc[nH]2)C(=O)N[C@@H](CC(C)C)C(=O)N(C)CC(=O)N[C@@H](Cc2c[nH]c3ccccc23)C(=O)N[C@@H](CO)C(=O)N[C@@H](Cc2c[nH]c3ccccc23)C(=O)N1C` [Compound No. 34] ({CH2CO}-[Phe(4-Br)][NMeA]NPHL[Sar]WSW[NMeNle][NMeNle]RCG-NH2; thioether N-14), the IC50 under setting [1] worked out at 4 nM. The same measure, in the same setting: the figure for `CCCC[C@H]1C(=O)N(C)[C@@H](CCCC)C(=O)N[C@@H](CCCNC(=N)N)C(=O)N[C@H](C(=O)NCC(N)=O)CSCC(=O)N[C@@H](Cc2ccccc2)C(=O)N(C)[C@@H](C)C(=O)N[C@@H](CC(N)=O)C(=O)N2CCC[C@H]2C(=O)N[C@@H](Cc2cnc[nH]2)C(=O)N[C@@H](CC(C)C)C(=O)N(C)CC(=O)N[C@@H](Cc2c[nH]c3ccccc23)C(=O)N[C@@H](CO)C(=O)N[C@@H](Cc2csc3ccccc23)C(=O)N1C` [Compound No. 64] ({CH2CO}-F[NMeA]NPHL[Sar]WS[Bta][NMeNle][NMeNle]RCG-NH2; thioether N-14) is 7 nM.

Take `CCCC[C@H]1C(=O)N(C)[C@@H](CCCC)C(=O)N[C@@H](CCCNC(=N)N)C(=O)N[C@H](C(=O)NCC(N)=O)CSCC(=O)N[C@@H](Cc2ccc(C)cc2)C(=O)N(C)[C@@H](C)C(=O)N[C@@H](CC(N)=O)C(=O)N2CCC[C@H]2C(=O)N[C@@H](Cc2cnc[nH]2)C(=O)N[C@@H](CC(C)C)C(=O)N(C)CC(=O)N[C@@H](Cc2c[nH]c3ccccc23)C(=O)N[C@@H](CO)C(=O)N[C@@H](Cc2c[nH]c3ccccc23)C(=O)N1C` [Compound No. 36] ({CH2CO}-[Phe(4-Me)][NMeA]NPHL[Sar]WSW[NMeNle][NMeNle]RCG-NH2; thioether N-14): the IC50 under setting [1] was found to be 9 nM. Take `CCCC[C@H]1C(=O)N(C)[C@@H](CCCC)C(=O)N[C@@H](CCCNC(=N)N)C(=O)N[C@H](C(=O)NCC(N)=O)CSCC(=O)N[C@@H](Cc2ccccc2)C(=O)N(C)[C@@H](C)C(=O)N[C@H](CC(N)=O)C(=O)N2CCC[C@H]2C(=O)N[C@@H](Cc2c[nH]cn2)C(=O)N[C@@H](CC(C)C)C(=O)N(C)CC(=O)N[C@@H](Cc2c[nH]c3ccccc23)C(=O)N[C@@H](CO)C(=O)N[C@@H](Cc2c[nH]c3ccccc23)C(=O)N1C` [Compound No. 42] ({CH2CO}-F[NMeA][dN]PHL[Sar]WSW[NMeNle][NMeNle]RCG-NH2; thioether N-14): the IC50 under setting [1] was above 10000 nM.

In the case of `CCCC[C@H]1C(=O)N(C)[C@@H](C)C(=O)N[C@@H](CCCNC(=N)N)C(=O)N[C@H](C(=O)NCC(N)=O)CSCC(=O)N[C@@H](Cc2ccccc2)C(=O)N(C)[C@@H](C)C(=O)N[C@@H](CC(N)=O)C(=O)N2CCCC2C(=O)N[C@@H](Cc2cnc[nH]2)C(=O)N[C@@H](CC(C)C)C(=O)N(C)CC(=O)N[C@@H](Cc2c[nH]c3ccccc23)C(=O)N[C@@H](CO)C(=O)N[C@@H](Cc2c[nH]c3ccccc23)C(=O)N1C` (some centres unmarked) [Compound No. 21] ({CH2CO}-F[NMeA]N[ξP]HL[Sar]WSW[NMeNle][NMeA]RCG-NH2; thioether N-14), the IC50 under setting [1] was 21 nM. As to `CC[C@H](C)[C@@H]1NC(=O)[C@H](CC(C)C)NC(=O)[C@H](Cc2ccccc2)NC(=O)CSC[C@@H](C(=O)NCC(N)=O)NC(=O)[C@H](CCCNC(=N)N)NC(=O)[C@H](Cc2ccccc2)NC(=O)[C@H](C(C)C)NC(=O)[C@H](CCCNC(=N)N)NC(=O)[C@H](CC(=O)O)NC(=O)[C@H](CC(C)C)NC(=O)[C@H]([C@@H](C)CC)NC(=O)[C@H](C(C)C)NC1=O` [Compound No. 109] (HELM PEPTIDE1{[O=C(C[*:3])[*:2]].F.L.I.V.I.L.D.R.V.F.R.C.G.[am]}$PEPTIDE1,PEPTIDE1,1:R3-13:R3$$$V2.0), for the setting “Table 7, Compound No. 99 variant macrocyclic peptides, read-out: HTRF Human PD-L1/PD-1 Binding Assay IC50”, the IC50 is above 20000 nM.

For the molecule `CCCC[C@H]1C(=O)N(C)[C@@H](CCCC)C(=O)N[C@@H](CCCNC(=N)N)C(=O)N[C@H](C(=O)NCC(N)=O)CSCC(=O)N[C@@H](Cc2ccccc2)C(=O)N(C)[C@@H](C)C(=O)N[C@@H](CC(N)=O)C(=O)N2CCC2C(=O)N[C@@H](Cc2cnc[nH]2)C(=O)N[C@@H](CC(C)C)C(=O)N(C)CC(=O)N[C@@H](Cc2c[nH]c3ccccc23)C(=O)N[C@@H](CO)C(=O)N[C@@H](Cc2c[nH]c3ccccc23)C(=O)N1C` (some centres unmarked) [Compound No. 50] ({CH2CO}-F[NMeA]N[ξAze]HL[Sar]WSW[NMeNle][NMeNle]RCG-NH2; thioether N-14), under setting [1], the IC50 was 71 nM.
